Assays:
Experiment in all cases: relative viability (nuclei count vs DMSO), 5 days (fraction); higher = more cells survive
201T = test system: 201T
In short: (§1)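 A single step with final 0.05% Triton X-100, 1% formaldehyde and 1 ug/ml Hoechst fixed the cells and stained nuclei 5 days after treatment. Lung cancer cell lines in 1536-well plates had been treated by pin tool the day after seeding with one drug alone or a fixed anchor-drug dose plus five library-drug doses (not always all listed) in √10 steps, and nuclei were counted on 4× images. Relative viability is the ratio of nuclei in treated wells to nuclei in vehicle wells, taken as the median of duplicate plates.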

A-427 = test system: A-427
In short: as §1

COR-L23 = test system: COR-L23
In short: as §1

H3255 = test system: H3255
In short: as §1

HCC-44 = test system: HCC-44
In short: as §1

LC-2-ad = test system: LC-2-ad
In short: as §1

LCLC-103H = test system: LCLC-103H
In short: as §1

LCLC-97TM1 = test system: LCLC-97TM1
In short: as §1

LK-2 = test system: LK-2
In short: as §1

LU99A = test system: LU99A
In short: as §1

NCI-H1650 = test system: NCI-H1650
In short: as §1

NCI-H1793 = test system: NCI-H1793
In short: as §1

NCI-H2347 = test system: NCI-H2347
In short: as §1

NCI-H23 = test system: NCI-H23
In short: as §1

NCI-H460 = test system: NCI-H460
In short: as §1

NCI-H596 = test system: NCI-H596
In short: as §1

NCI-H727 = test system: NCI-H727
In short: as §1

PC-14 = test system: PC-14
In short: as §1

SW 1573 = test system: SW 1573
In short: as §1

SW 900 = test system: SW 900
In short: as §1

COc1cc2nccc(Oc3ccc(NC(=O)Nc4cc(C)on4)c(Cl)c3)c2cc1OC [Tivozanib] + Nc1ncn([C@H]2C[C@H](O)[C@@H](CO)O2)c(=O)n1 [Decitabine] (partner 2 µM) showed a relative viability (201T; first compound 0.005 µM) of 0.85, a relative viability (201T; first compound 0.01581 µM) of 0.855 and a relative viability (201T; first compound 0.05 µM) of 0.87. The relative viability (201T; first compound 0.1581 µM) was 0.854, the relative viability (201T; first compound 0.5 µM) was 0.896 and the relative viability (A-427; first compound 0.005 µM) was 0.566. The relative viability (A-427; first compound 0.01581 µM) was 0.551, the relative viability (A-427; first compound 0.05 µM) was 0.575 and the relative viability (A-427; first compound 0.1581 µM) was 0.566. The relative viability (A-427; first compound 0.5 µM) was 0.543, the relative viability (COR-L23; first compound 0.005 µM) was 0.391 and the relative viability (COR-L23; first compound 0.01581 µM) was 0.398. It also gave a relative viability (COR-L23; first compound 0.05 µM) of 0.403, a relative viability (COR-L23; first compound 0.1581 µM) of 0.317 and a relative viability (COR-L23; first compound 0.5 µM) of 0.372. For the same compound, the relative viability (H3255; first compound 0.005 µM) was 0.541, the relative viability (H3255; first compound 0.01581 µM) was 0.592 and the relative viability (H3255; first compound 0.05 µM) was 0.591. The relative viability (H3255; first compound 0.1581 µM) was 0.552, the relative viability (H3255; first compound 0.5 µM) was 0.77 and the relative viability (HCC-44; first compound 0.005 µM) was 0.92. The relative viability (HCC-44; first compound 0.01581 µM) was 0.964, the relative viability (HCC-44; first compound 0.05 µM) was 0.956 and the relative viability (HCC-44; first compound 0.1581 µM) was 0.982. It also gave a relative viability (HCC-44; first compound 0.5 µM) of 0.937, a relative viability (LC-2-ad; first compound 0.005 µM) of 0.835 and a relative viability (LC-2-ad; first compound 0.01581 µM) of 0.681. It also gave a relative viability (LC-2-ad; first compound 0.05 µM) of 0.77, a relative viability (LC-2-ad; first compound 0.1581 µM) of 0.58 and a relative viability (LC-2-ad; first compound 0.5 µM) of 0.57. It also gave a relative viability (LCLC-103H; first compound 0.005 µM) of 0.615, a relative viability (LCLC-103H; first compound 0.01581 µM) of 0.708 and a relative viability (LCLC-103H; first compound 0.05 µM) of 0.732. For the same compound, the relative viability (LCLC-103H; first compound 0.1581 µM) was 0.685, the relative viability (LCLC-103H; first compound 0.5 µM) was 0.744 and the relative viability (LCLC-97TM1; first compound 0.005 µM) was 0.215. The relative viability (LCLC-97TM1; first compound 0.01581 µM) was 0.22, the relative viability (LCLC-97TM1; first compound 0.05 µM) was 0.297 and the relative viability (LCLC-97TM1; first compound 0.1581 µM) was 0.221. The relative viability (LCLC-97TM1; first compound 0.5 µM) was 0.19, the relative viability (LK-2; first compound 0.005 µM) was 0.275 and the relative viability (LK-2; first compound 0.01581 µM) was 0.322. It also gave a relative viability (LK-2; first compound 0.05 µM) of 0.334, a relative viability (LK-2; first compound 0.1581 µM) of 0.204 and a relative viability (LK-2; first compound 0.5 µM) of 0.206. It also gave a relative viability (LU99A; first compound 0.005 µM) of 1.04, a relative viability (LU99A; first compound 0.01581 µM) of 0.769 and a relative viability (LU99A; first compound 0.05 µM) of 0.894. The relative viability (LU99A; first compound 0.1581 µM) was 0.679, the relative viability (LU99A; first compound 0.5 µM) was 0.758 and the relative viability (NCI-H1650; first compound 0.005 µM) was 0.412. It also gave a relative viability (NCI-H1650; first compound 0.01581 µM) of 0.493, a relative viability (NCI-H1650; first compound 0.05 µM) of 0.507 and a relative viability (NCI-H1650; first compound 0.1581 µM) of 0.508. It also gave a relative viability (NCI-H1650; first compound 0.5 µM) of 0.411, a relative viability (NCI-H1793; first compound 0.005 µM) of 0.474 and a relative viability (NCI-H1793; first compound 0.01581 µM) of 0.518. For the same compound, the relative viability (NCI-H1793; first compound 0.05 µM) was 0.562, the relative viability (NCI-H1793; first compound 0.5 µM) was 0.481 and the relative viability (NCI-H2347; first compound 0.005 µM) was 0.569. It also gave a relative viability (NCI-H2347; first compound 0.01581 µM) of 0.594, a relative viability (NCI-H2347; first compound 0.05 µM) of 0.62 and a relative viability (NCI-H2347; first compound 0.1581 µM) of 0.57. It also gave a relative viability (NCI-H2347; first compound 0.5 µM) of 0.659, a relative viability (NCI-H23; first compound 0.005 µM) of 0.304 and a relative viability (NCI-H23; first compound 0.01581 µM) of 0.279. The relative viability (NCI-H23; first compound 0.05 µM) was 0.3, the relative viability (NCI-H23; first compound 0.5 µM) was 0.309 and the relative viability (NCI-H460; first compound 0.005 µM) was 0.449. The relative viability (NCI-H460; first compound 0.01581 µM) was 0.468, the relative viability (NCI-H460; first compound 0.05 µM) was 0.48 and the relative viability (NCI-H460; first compound 0.1581 µM) was 0.62. For the same compound, the relative viability (NCI-H460; first compound 0.5 µM) was 0.482, the relative viability (NCI-H596; first compound 0.005 µM) was 0.975 and the relative viability (NCI-H596; first compound 0.01581 µM) was 0.994. It also gave a relative viability (NCI-H596; first compound 0.05 µM) of 1.15, a relative viability (NCI-H596; first compound 0.5 µM) of 1.03 and a relative viability (NCI-H727; first compound 0.005 µM) of 0.836. For the same compound, the relative viability (NCI-H727; first compound 0.01581 µM) was 0.929, the relative viability (NCI-H727; first compound 0.05 µM) was 0.85 and the relative viability (NCI-H727; first compound 0.1581 µM) was 0.59. The relative viability (NCI-H727; first compound 0.5 µM) was 0.905, the relative viability (PC-14; first compound 0.005 µM) was 0.195 and the relative viability (PC-14; first compound 0.01581 µM) was 0.214. The relative viability (PC-14; first compound 0.05 µM) was 0.216, the relative viability (PC-14; first compound 0.1581 µM) was 0.252 and the relative viability (PC-14; first compound 0.5 µM) was 0.153. The relative viability (SW 1573; first compound 0.005 µM) was 0.461, the relative viability (SW 1573; first compound 0.01581 µM) was 0.446 and the relative viability (SW 1573; first compound 0.05 µM) was 0.487. The relative viability (SW 1573; first compound 0.1581 µM) was 0.376, the relative viability (SW 1573; first compound 0.5 µM) was 0.451 and the relative viability (SW 900; first compound 0.005 µM) was 0.454. The relative viability (SW 900; first compound 0.01581 µM) was 0.411, the relative viability (SW 900; first compound 0.05 µM) was 0.454 and the relative viability (SW 900; first compound 0.5 µM) was 0.389.

Reference: the supplement of paper PMC10307832
